A word on the AUC(0-t): it is exposure summed from dosing to a finite time, without extrapolation to infinity. A low value points to low exposure. What is called IC50 is the concentration that inhibits the measured activity by half. Lower therefore signals greater potency in that assay. By CLint scaled is commonly meant the rate of metabolic loss divided by the concentration.

We go through 8 compounds from US10059689B2, “Substituted heteroaryl compounds and methods of use” (Sunshine Lake Pharma Co., Ltd., priority 2014, dated 2018).

A short description of data set [1]: Pharmacokinetics after intravenous and oral administration in rats. In kind it is in vivo. Particulars: for clearance (CL) / AUC(0-t) / half-life / Vd: iv dosing, 1 mg/kg; for F: oral bioavailability; for AUC(0-t) / half-life / Vd: rat, plasma; for Vd: read-out: Vss. As for the experimental part:
The LC/MS/MS system used in the analysis consists of an Agilent 1200 Series vacuum degasser, binary pump, well-plate autosampler, thermostatted column compartment, the Agilent G6430 Triple Quadrupole Mass Spectrometer with an electrosprayionization (ESI) source. Quantitative analysis was carried out using MRM mode. The parameters for MRM transitions are in the Table A.
An Agilent XDB-C18, 2.1×30 mm, 3.5 μM column was used for the analysis. 5 μL of the samples were injected. Analysis condition: The mobile phase was 0.1% formic acid in water (A) and 0.1% formic acid in methanol (B). The flow rate was 0.4 mL/min. And the gradient of Mobile phase was in the Table B.
Alternatively, an Agilent 6330 series LC/MS/MS spectrometer equipped with G1312A binary pumps, a G1367A autosampler and a G1314C UV detector were used in the analysis. An ESI source was used on the LC/MS/MS spectrometer. The analysis was done in positive ion mode as appropriate and the MRM transition for each analyte was optimized using standard solution. A Capcell MP-C18 100×4.6 mm I.D., […] column (Phenomenex, Torrance, Calif., USA) was used during the analysis. The mobile phase was 5 mM ammonia acetate, 0.1% MeOH in water (A): 5 mM ammonia acetate, 0.1% MeOH in acetonitrile (B) (70:30, v/v). The flow rate was 0.6 mL/min. Column was maintained at ambient temperature. 20 μL of the samples were injected.
The compounds disclosed herein are assessed in pharmacokinetic studies in mice, rats, dogs or monkeys. The compounds are administered as a water solution, 2% HPMC+1% TWEEN®80 in water solution, 5% DMSO+5% solutol in saline, 4% MC suspension or capsule. For the intravenous administration, the animals are generally given at 1 or 2 mg/kg dose. For the oral (p.o.) dosing, mice and rats are generally given 5 or 10 mg/kg dose, and dogs and monkeys are generally given 10 mg/kg dose. The blood samples (0.3 mL) are drawn at 0.25, 0.5, 1.0, 2.0, 3.0, 4.0, 6.0, 8.0, 12 and 24 h time points or 0.083, 0.25, 0.5, 1.0, 2.0, 4.0, 6.0, 8.0 and 24 h time points and centrifuged at 3,000 or 4000 rpm for 2 to 10 min. The plasma solutions are collected, and stored at −20° C. or −70° C. until analyzed by LC/MS/MS as described above.

Data set [2] concerns the target T1, JAK1 (h) (Homo sapiens, UniProt P23458).
T1 construct: purchased Millipore UK Ltd (contract assay service)
Kind of data set: JAK1 (h) kinase assay. In kind it is biochemical. As for the experimental part:
(§1) The above assay procedure can be used to determine the IC50 for inhibition and/or the inhibition constant, Ki. The IC50 is defined as the concentration of compound required to reduce the enzyme activity by 50% under the condition of the assay. The IC50 value is estimated by preparing a 10 point curve using a ½ log dilution series (for example, a typical curve may be prepared using the following compound concentrations: 3 μM, 1 μM, 0.3 μM, 0.1 μM, 0.03 μM, 0.01 μM, 0.003 μM, 0.001 μM, 0.0003 μM and 0 μM).
JAK1 (h) is incubated with 20 mM Tris/HCl pH 7.5, 0.2 mM EDTA, 500 μM GEEPLYWSFPAKKK, 10 mM MgAcetate and [γ-^33P-ATP] (specific activity approx. 500 cpm/pmol, concentration as required). The reaction is initiated by the addition of the MgATP mix. After incubation for 40 minutes at room temperature, the reaction is stopped by the addition of 3% phosphoric acid solution. 10 μL of the reaction is then spotted onto a P30 filtermat and washed three times for 5 minutes in 75 mM phosphoric acid and once in methanol prior to drying and scintillation counting.
(§2) The kinase assays described herein were performed at Millipore UK Ltd, Dundee Technology Park, Dundee DD2 1SW, UK.

Data set [3] can be described thus: Compound stability in human liver microsomes. In kind it is in vitro ADME. To be noted: for half-life: pH 7.4, 37° C., NADPH, read-out: Human T1/2; for CLint scaled: pH 7.4, in vivo CLint extrapolated. As to the method:
(§3) Human or rat liver microsomes incubations were conducted in duplicate in polypropylene tubes. The typical incubation mixtures consisted of human or rat liver microsomes (0.5 mg protein/mL), compounds of interest (5 μM) and NADPH (1.0 mM) in a total volume of 200 μL potassium phosphate buffer (PBS, 100 mM, pH 7.4). Compounds were dissolved in DMSO and diluted with PBS such that the final concentration of DMSO was 0.05%. The enzymatic reactions were commenced with the addition of protein after a 3-min preincubation and incubated in a water bath open to the air at 37° C. Reactions were terminated at various time points (0, 5, 10, 15, 30, 60 min) by adding equal volume of ice-cold acetonitrile. The samples were stored at −80° C. until LC/MS/MS assays.
(§4) The concentrations of compounds in the incubation mixtures of human or rat liver microsomes were determined by a LC/MS/MS method. The ranges of the linearity in the concentration range were determined for each tested compounds.
(§5) A parallel incubation was performed using denatured microsomes as the negative control, and reactions were terminated at various time points (0, 15, 60 min) after incubation at 37° C.
(§6) Verapamil (1 μM) was selected as the positive control, and reactions were terminated at various time points (0, 5, 10, 15, 30, 60 min) after incubation at 37° C. Both positive and negative control samples were included in each assay to ensure the integrity of the microsomal incubation system.
(§7) In addition, the stability date of compound in human and rat liver microsomes was also obtained through the following method. Human or rat liver microsomes incubations were conducted in duplicate in polypropylene tubes. The typical incubation mixtures consisted of human or rat liver microsomes (0.5 mg protein/mL), compounds of interest (1.5 μM) and EDTA (1.0 mM) in a total volume of 30 μL potassium phosphate buffer (PBS, 100 mM, pH 7.4). Compounds were dissolved in DMSO and diluted with PBS such that the final concentration of DMSO was 0.2%. The enzymatic reactions were commenced with the addition of 15 μL NADPH (final concentration: 2 mM) after a 10-min preincubation and incubated in a water bath open to the air at 37° C. Reactions were terminated at various time points (0, 15, 30, 60 min) by adding 135 μL acetonitrile (contain IS). The samples were centrifuged at 4000 rpm for 10 min to remove protein, the supernatant was stored at −80° C. until LC/MS/MS assays. Ketanserin (1 μM) was selected as the positive control, and reactions were terminated at various time points (0, 15, 30, 60 min) after incubation at 37° C. Both positive and negative control samples were included in each assay to ensure the integrity of the microsomal incubation system.
(§8) The concentrations of compounds in human or rat liver microsome incubations were plotted as a percentage of the relevant zero time point control for each reaction. The in vivo CLint were extrapolated (ref.: Naritomi, Y.; Terashita, S.; Kimura, S.; Suzuki, A.; Kagayama, A.; and Sugiyama, Y.; Prediction of human hepatic clearance from in vivo animal experiments and in vitro metabolic studies with liver microsomes from animals and humans. Drug Metab. Dispos., 2001, 29: 1316-1324).

Data set [4] is described as follows: Compound stability in rat liver microsomes. The class given is in vitro ADME. To be noted: for half-life: pH 7.4, 37° C., NADPH, read-out: Rat T1/2; for CLint scaled: pH 7.4, in vivo CLint extrapolated. As for the experimental part: as §3, §4, §5, §6, §7, §8
The target of data set [5] is T2, JAK2 (h) (Homo sapiens, UniProt O60674).
T2 construct: purchased Millipore UK Ltd (contract assay service)
Kind of data set: JAK2 (h) kinase assay. In kind it is biochemical. As for the experimental part: as §1
JAK2 (h) is incubated with 8 mM MOPS pH 7.0, 0.2 mM EDTA, 100 μM […], 10 mM MgAcetate and [γ-^33P-ATP] (specific activity approx. 500 cpm/pmol, concentration as required). The reaction is initiated by the addition of the MgATP mix. After incubation for 40 minutes at room temperature, the reaction is stopped by the addition of 3% phosphoric acid solution. 10 μL of the reaction is then spotted onto a P30 filtermat and washed three times for 5 minutes in 75 mM phosphoric acid and once in methanol prior to drying and scintillation counting.
as §2

T2 sequence (O60674 whole entry): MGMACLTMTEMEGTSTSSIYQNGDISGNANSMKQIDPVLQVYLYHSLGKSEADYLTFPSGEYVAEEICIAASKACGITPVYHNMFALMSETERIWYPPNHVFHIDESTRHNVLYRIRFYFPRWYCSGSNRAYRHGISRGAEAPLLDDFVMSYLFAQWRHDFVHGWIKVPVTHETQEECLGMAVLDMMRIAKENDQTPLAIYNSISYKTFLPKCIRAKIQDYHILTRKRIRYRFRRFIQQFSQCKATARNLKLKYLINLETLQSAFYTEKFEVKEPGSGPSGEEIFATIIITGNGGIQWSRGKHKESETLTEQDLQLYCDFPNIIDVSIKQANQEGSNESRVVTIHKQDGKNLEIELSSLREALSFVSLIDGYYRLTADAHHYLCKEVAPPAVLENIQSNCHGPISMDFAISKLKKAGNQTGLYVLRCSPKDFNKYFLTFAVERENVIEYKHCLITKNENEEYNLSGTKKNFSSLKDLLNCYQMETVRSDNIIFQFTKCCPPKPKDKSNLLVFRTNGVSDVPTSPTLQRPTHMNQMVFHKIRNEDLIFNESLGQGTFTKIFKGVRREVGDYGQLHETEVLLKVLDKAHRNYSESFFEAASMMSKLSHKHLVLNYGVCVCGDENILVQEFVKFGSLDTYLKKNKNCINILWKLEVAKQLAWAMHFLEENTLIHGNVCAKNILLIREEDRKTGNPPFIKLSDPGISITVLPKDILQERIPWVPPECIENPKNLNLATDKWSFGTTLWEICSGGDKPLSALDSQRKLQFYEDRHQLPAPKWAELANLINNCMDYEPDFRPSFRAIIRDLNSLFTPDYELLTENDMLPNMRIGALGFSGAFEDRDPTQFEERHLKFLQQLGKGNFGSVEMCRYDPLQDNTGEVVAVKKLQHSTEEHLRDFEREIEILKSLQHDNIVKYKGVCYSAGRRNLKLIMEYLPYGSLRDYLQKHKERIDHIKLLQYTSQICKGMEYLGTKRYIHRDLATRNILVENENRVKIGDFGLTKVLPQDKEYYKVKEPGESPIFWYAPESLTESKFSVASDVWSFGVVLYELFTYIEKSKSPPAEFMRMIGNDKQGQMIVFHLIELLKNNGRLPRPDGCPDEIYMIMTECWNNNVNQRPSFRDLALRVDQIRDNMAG
T1 sequence (P23458 whole entry): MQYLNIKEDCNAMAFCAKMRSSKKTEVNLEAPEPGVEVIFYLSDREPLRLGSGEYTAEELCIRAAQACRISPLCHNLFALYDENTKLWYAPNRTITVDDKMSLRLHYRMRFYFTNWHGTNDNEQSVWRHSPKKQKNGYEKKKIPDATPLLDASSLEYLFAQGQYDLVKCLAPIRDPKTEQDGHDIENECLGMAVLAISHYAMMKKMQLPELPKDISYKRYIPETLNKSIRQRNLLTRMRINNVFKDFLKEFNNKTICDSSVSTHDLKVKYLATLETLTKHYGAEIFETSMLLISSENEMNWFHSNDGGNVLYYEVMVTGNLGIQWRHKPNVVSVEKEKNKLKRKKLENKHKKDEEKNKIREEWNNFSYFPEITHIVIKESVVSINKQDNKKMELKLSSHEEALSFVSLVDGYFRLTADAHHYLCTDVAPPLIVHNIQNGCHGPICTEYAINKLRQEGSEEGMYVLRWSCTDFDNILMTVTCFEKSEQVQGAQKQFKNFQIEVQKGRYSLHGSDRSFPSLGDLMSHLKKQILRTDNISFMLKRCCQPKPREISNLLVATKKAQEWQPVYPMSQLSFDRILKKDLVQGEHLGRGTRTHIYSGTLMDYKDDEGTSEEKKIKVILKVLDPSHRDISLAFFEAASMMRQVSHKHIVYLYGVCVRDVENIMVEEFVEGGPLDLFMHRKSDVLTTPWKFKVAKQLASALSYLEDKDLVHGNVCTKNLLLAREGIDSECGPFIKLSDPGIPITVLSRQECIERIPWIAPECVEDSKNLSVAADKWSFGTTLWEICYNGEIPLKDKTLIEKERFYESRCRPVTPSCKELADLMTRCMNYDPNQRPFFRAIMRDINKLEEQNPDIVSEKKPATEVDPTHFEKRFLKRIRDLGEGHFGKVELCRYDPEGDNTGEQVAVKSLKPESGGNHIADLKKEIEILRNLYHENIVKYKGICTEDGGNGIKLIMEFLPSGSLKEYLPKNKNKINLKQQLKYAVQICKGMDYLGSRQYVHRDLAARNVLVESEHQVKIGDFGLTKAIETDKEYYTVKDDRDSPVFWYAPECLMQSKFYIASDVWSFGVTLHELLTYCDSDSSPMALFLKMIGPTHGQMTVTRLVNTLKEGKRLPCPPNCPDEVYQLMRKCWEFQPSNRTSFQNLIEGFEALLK

With `Cn1cc2ccc(Nc3ncc(Cl)c(NC4CCN(c5ccc(C#N)nn5)CC4)n3)cc2n1` [Ex. 25], in data set [1], the “clearance (CL)” value amounted to 14 mL/min/kg, the F was determined as 62.8%, the AUC(0-t) came to 1220 ng·h/mL and the half-life is 28.2 min. In data set [1], the Vd came to 0.33 L/kg. In data set [2], the IC50 was less than 0.3 nM. Moreover, in data set [3], the half-life was found to be 25.7 min and the intrinsic metabolic clearance (CLint scaled) was 67.6 mL/min/kg. For the same compound, in data set [4], the half-life was determined as 20.8 min and the CLint scaled was 120 mL/min/kg.
With `CN(c1nc(Nc2cnn(C)c2)ncc1Cl)C1CCN(c2ccc(C#N)cn2)C1` (stereo not shown) [Ex. 7, 6-(3-((5-chloro-2-((1-methyl-1H-pyrazol-4-yl)amino)pyrimidin-4-yl) (methyl)amino)pyrrolidin-1-yl)nicotinonitrile], in data set [1], the “clearance (CL)” value is 37.7 mL/min/kg, the F is reported as 67.1%, the AUC(0-t) was found to be 445 ng·h/mL and the half-life was 20.4 min. For the same compound, in data set [1], the Vd was found to be 0.86 L/kg. Further, the IC50 in data set [2] was determined as 22 nM. In data set [3], the half-life came out at 14.5 min and the CLint scaled was 120 mL/min/kg. In addition, in data set [4], the half-life was found to be 9.2 min and the intrinsic clearance (CLint scaled) is 270 mL/min/kg.
Consider `Cc1cc(Nc2ncc(Cl)c(NC3CCN(c4ccc(C#N)cn4)CC3)n2)nn1C` [Ex. 2], for which the IC50 in data set [2] was found to be 0.6 nM; in data set [5], 3 nM. The results for the half-life in data set [3] and in data set [4] were 36.3 min and 17.7 min, respectively. The figures for the CLint scaled in data set [3] and in data set [4] were 47.9 mL/min/kg and 140 mL/min/kg, respectively.
`Cc1cnc(Nc2cnn(C)c2)nc1N(C)C1CCN(c2ccc(C#N)cn2)CC1` [Ex. 6, 6-(4-(methyl(5-methyl-2-((1-methyl-1H-pyrazol-4-yl)amino)pyrimidin-4-yl)amino)piperidin-1-yl)nicotinonitrile]: in data set [1], the “clearance (CL)” value worked out at 20.2 mL/min/kg, the F turned out to be 22.2%, the AUC(0-t) stood at 1360 ng·h/mL and the half-life was 35.9 min. Also, the Vd in data set [1] worked out at 0.56 L/kg. The compound also came in with an IC50 in data set [2] of 2 nM. For the same compound, in data set [3], the half-life is 15.6 min and the CLint scaled is 111 mL/min/kg. Moreover, in data set [4], the half-life was 4.3 min and the CLint scaled is 577 mL/min/kg.
`Cc1cc(Nc2ncc(Cl)c(N(C)C3CCN(c4ccc(C#N)cn4)CC3)n2)nn1C` [Ex. 9, 6-(4-((5-chloro-2-((1,5-dimethyl-1H-pyrazol-3-yl)amino)pyrimidin-4-yl) (methyl)amino)piperidin-1-yl)nicotinonitrile]: in data set [1], the “clearance (CL)” value is 48.8 mL/min/kg, the F worked out at 45.8%, the area under the curve AUC(0-t) turned out to be 350 ng·h/mL and the half-life was 54 min. In addition, the Vd in data set [1] was found to be 2.63 L/kg. Besides, half-maximal inhibition in data set [2] (IC50) was put at 4 nM. For the same compound, in data set [3], the half-life came to 17.9 min and the intrinsic metabolic clearance (CLint scaled) was 96.9 mL/min/kg. Further, in data set [4], the half-life was 10.4 min and the CLint scaled was 240 mL/min/kg.
With `Cc1cc(Nc2ncc(Cl)c(NC3CCN(c4ccc(C#N)cn4)CC3)n2)n[nH]1` [Ex. 3], in data set [1], the “clearance (CL)” value came to 17.2 mL/min/kg, the F turned out to be 112.01%, the AUC(0-t) was determined as 1060 ng·h/mL and the half-life is 56.4 min. For the same compound, the Vd in data set [1] stood at 0.94 L/kg. Also, the IC50 in data set [2] is less than 0.3 nM. In data set [3], the half-life is 163 min and the CLint scaled is 10.7 mL/min/kg. In data set [4], the half-life is 74.5 min and the CLint scaled was 33.3 mL/min/kg. In data set [5], this compound showed an IC50 of 2 nM.
Consider `CCC1CN(c2ccc(C#N)nn2)CCC1Nc1nc(Nc2cc(C)n(C)n2)ncc1Cl` (stereo not shown) [Ex. 15, 6-(4-((5-chloro-2-((1,5-dimethyl-1H-pyrazol-3-yl)amino)pyrimidin-4-yl)amino)-3-ethylpiperidin-1-yl)pyridazine-3-carbonitrile], for which, in data set [1], the “clearance (CL)” value was 8.67 mL/min/kg, the F is 92.2%, the AUC(0-t) was determined as 1930 ng·h/mL and the half-life was 45.6 min. Also, the Vd in data set [1] stood at 0.48 L/kg. The IC50 in data set [2] was 0.6 nM. In addition, in data set [3], the half-life stood at 23.3 min and the intrinsic clearance (CLint scaled) is 74.5 mL/min/kg. Further, in data set [4], the half-life turned out to be 35 min and the intrinsic clearance (CLint scaled) was 71 mL/min/kg. In data set [5], this compound returned an IC50 of 0.6 nM.
Consider `Cn1nc(Nc2ncc(Cl)c(NC3CCN(c4ccc(C#N)cn4)CC3)n2)cc1C(C)(C)O` [Ex. 26, 6-(4-((5-chloro-2-((5-(2-hydroxypropan-2-yl)-1-methyl-1H-pyrazol-3-yl)amino)pyrimidin-4-yl)amino)piperidin-1-yl)nicotinonitrile], for which the IC50 is 1 nM in data set [2] and 0.8 nM in data set [5].
